PMC5361215 (Scientific Reports, 2017)
The star is where a group is joined. X1 = CC(C)CCC[C@@H](C)[C@H]1CC[C@H]2[C@@H]3CC=C4C[C@@H](OC(=O)CCOCCOCCOCCOCCOCCOCCOCCOCCOCCOCCOCCOCCOCCOCCOCCOCCOCCOCCOCCOCCOCCOCCOCCOCCNC(=O)C*)CC[C@]4(C)[C@H]3CC[C@]12C; X2 = CC(C)CCC[C@@H](C)[C@H]1CC[C@H]2[C@@H]3CC=C4C[C@@H](OC(=O)CCOCCOCCOCCOCCNC(=O)C*)CC[C@]4(C)[C@H]3CC[C@]12C; X3 = CC(C)CCC[C@@H](C)[C@H]1CC[C@H]2[C@@H]3CC=C4C[C@@H](OC(=O)C*)CC[C@]4(C)[C@H]3CC[C@]12C

Legend:
[1] = type: physicochemical; conditions: pH 7.4
HPIV3 [2] = type: in vivo, cotton rats; conditions: n = 4
HPIV3 [3] = type: cell-based
[4] = hamster, in vivo, ip, 2 mg/kg
HPIV3 [5] = conditions: 24 h
RBCs = type: binding, human; conditions: pH 7.4; read-out: Apparent Kd towards RBCs
[6] = type: binding; conditions: read-out: Kd, dissociation constant for POPC monolayer
in vivo = conditions: female, Syrian golden, hamster, ip, 2 mg/kg
Vero cells = conditions: for Cytotoxicity in monolayer culture CC50: 24 h
NiV = test system: NiV; set-up: species or system Syrian golden hamsters (Mesocricetus auratus); conditions: hamster, in vivo, ip, 2 mg/kg
[7] = biological target: uncleaved HPIV3 F (K108G) (Human parainfluenza 3 virus, UniProt P06828, K108G); type: cell-based
uncleaved HPIV3 F (K108G), sequence (P06828 19-539 K108G): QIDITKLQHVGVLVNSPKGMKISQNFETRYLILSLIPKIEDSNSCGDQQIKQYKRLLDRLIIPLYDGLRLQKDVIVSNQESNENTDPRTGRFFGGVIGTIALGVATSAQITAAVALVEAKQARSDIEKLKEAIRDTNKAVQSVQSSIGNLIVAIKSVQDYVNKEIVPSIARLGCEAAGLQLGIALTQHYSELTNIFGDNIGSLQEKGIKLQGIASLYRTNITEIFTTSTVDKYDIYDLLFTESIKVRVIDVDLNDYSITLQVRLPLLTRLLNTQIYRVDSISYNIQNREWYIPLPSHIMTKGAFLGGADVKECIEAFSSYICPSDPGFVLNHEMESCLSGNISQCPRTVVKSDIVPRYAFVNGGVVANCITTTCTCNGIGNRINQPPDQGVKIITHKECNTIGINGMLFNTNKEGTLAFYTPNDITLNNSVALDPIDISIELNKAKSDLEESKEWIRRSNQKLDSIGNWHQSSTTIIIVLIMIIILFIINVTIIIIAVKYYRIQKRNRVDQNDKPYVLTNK

NiV G/F mediated fusion = type: cell-based

Row | Compound | Blue-shift of ANS emission on titration with peptide [1] [nm] | Inhibition of HPIV3 infection in HAE at 1 μM (HPIV3 [3]) | Inhibition of HPIV3 infection in HAE at 10 μM (HPIV3 [3]) | IC50 (HPIV3 [5]) [nM] | IC90 (HPIV3 [5]) [nM] | Kd (RBCs) [nM] | Kd [6] [nM] | Cytotoxicity in monolayer culture CC50 (Vero cells) | RBCs irreversibly bound (peptide bridging) [7] | further results
1 | Ac-VALDPIDISIVLNKAKSDLEESKEWIRRSNGKLDSIGSGSGC(X1)-NH2 [VG-PEG24-Chol] | 58 | complete inhibition of infection | no virus was produced at any time after infection | 0.007 ± 0.007 | 0.1 ± 0.0003 | 330 | 77.6 ± 21.7 | 1,300 nM | looks similar to VG-Chol | Viral load in cotton rat lungs (HPIV3 [2]): significantly decreased the viral load; Peptide in brain (immuno-histofluorescence) [4]: present in brain parenchyma; Peptide in urine [4]: No peptide was detected in the urine; Protease degradation, temperature not given (trypsin): increased degradation significantly; Cmax (in vivo): 0.12 µM; Concentration at which toxicity on cells appears (Vero cells): 1 µM; Survival of hamsters given lethal NiV (NiV): significantly improved the survival
2 | Ac-C(X2)GSGSGVALDPIDISIVLNKAKSDLEESKEWIRRSNGKLDSI-NH2 [Chol-PEG4-VG] |  | only partial inhibition | no virus was produced at any time after infection |  | 0.1 ± 0.0001 |  |  | >10,000 nM |  | 
3 | CC[C@H](C)[C@H](NC(=O)[C@H](C)NC(=O)[C@H](CC(N)=O)NC(=O)CNC(=O)[C@H](CC(C)C)NC(=O)[C@H](CC(N)=O)NC(=O)[C@@H](NC(=O)CNC(=O)[C@@H](NC(=O)[C@H](CC(=O)O)NC(=O)[C@H](CC(C)C)NC(=O)[C@H](CCCNC(=N)N)NC(=O)[C@H](CCC(=O)O)NC(=O)[C@H](CC(C)C)NC(=O)[C@H](CO)NC(=O)[C@@H](NC(=O)[C@@H]1CCCN1C(=O)[C@@H]1CCCN1C(C)=O)[C@@H](C)CC)C(C)C)[C@@H](C)O)C(=O)N[C@@H](C)C(=O)N[C@@H](CCCCN)C(=O)N[C@@H](CC(C)C)C(=O)N[C@@H](CCC(=O)O)C(=O)N[C@@H](CC(=O)O)C(=O)N[C@@H](C)C(=O)N[C@@H](CCCCN)C(=O)N[C@@H](CCC(=O)O)C(=O)N[C@@H](CC(C)C)C(=O)N[C@@H](CC(C)C)C(=O)N[C@@H](CCC(=O)O)C(=O)N[C@@H](CO)C(=O)N[C@@H](CO)C(=O)N[C@@H](CC(=O)O)C(=O)N[C@@H](CCC(N)=O)C(=O)N[C@H](C(=O)N[C@@H](CC(C)C)C(=O)N[C@@H](CCCNC(=N)N)C(=O)NCC(=O)N[C@@H](CO)C(=O)NCC(=O)N[C@@H](CO)C(=O)NCC(=O)N[C@@H](CSCC(=O)NCCOCCOCCOCCOCCOCCOCCOCCOCCOCCOCCOCCOCCOCCOCCOCCOCCOCCOCCOCCOCCOCCOCCOCCOCCC(=O)O[C@H]1CC[C@@]2(C)C(=CC[C@H]3[C@@H]4CC[C@H]([C@H](C)CCCC(C)C)[C@@]4(C)CC[C@@H]32)C1)C(N)=O)[C@@H](C)CC [HRCMV PEG 24 Chol, reference compound] |  |  |  | > 2000 | > 2000 |  |  | 2,000 nM |  | 
4 | Ac-VALDPIDISIVLNKAKSDLEESKEWIRRSNGKLDSIGSGSGC(X2)-NH2 [VG-PEG4-Chol] | 63 | only partial inhibition |  | 0.03 ± 0.04 | 0.7 ± 0.007 | 440 | 67.9 ± 14.2 | 4,500 nM | more than 50% | Decrease of HPIV3 viral titer in HAE at day 2 after infection (HPIV3 [3]): approximately two logs; Decrease of HPIV3 viral titer in HAE at day 5 (HPIV3 [3]): approximately one log
5 | Ac-C(X3)GSGSGVALDPIDISIVLNKAKSDLEESKEWIRRSNGKLDSI-NH2 [Chol-VG] |  |  |  | 0.06 ± 0.035 | 1.7 ± 0.42 |  |  | 9,000 nM |  | IC50 against NiV fusion (NiV G/F mediated fusion): too little effect to determine an IC50; RBCs free (released) [7]: 80%; RBCs reversibly bound (HN-receptor engagement only) [7]: 20%
6 | Ac-VALDPIDISIVLNKAKSDLEESKEWIRRSNGKLDSIGSGSGC(X3)-NH2 [VG-Chol] | 67 |  |  | 0.015 | 0.7 ± 0.26 | 540 | 62.3 ± 20.3 | 10,000 nM |  | 
